The results in this text go back to patent publication US10556926B2, “Synthetic artificial peptides with antimicrobial effect” (priority 2014, dated 2020).

The test system of one data set is E. coli ML-35p. Nature of the data set: Kinetics of permeabilization of the inner bacteria membrane (ONPG). The data set is classed as cell-based, Escherichia coli. The procedure:
The ability of the antimicrobial peptides for the respective permeabilization of the outer and inner bacteria membrane was tested by way of example on E. coli ML-35p (made available by Dr. R. E. Lehrer, Center for Health Sciences, Los Angeles, Calif., USA). The peptides were incubated in serial dilution with E. coli ML-35p and the time-dependent release of cell-internal components was measured in a slightly modified protocol according to Ericsson et al. (2002). For this purpose, the bacteria were cultured in Luria-Bertani (LB) medium with 100 μg/ml ampicillin (Fluka, Taufkirchen, Germany) until reaching an optical density of 0.4 at 600 nm wavelength. Then, the cells were washed three times by centrifugation at 4000 g for 1 min and subsequent up-take in 10 mM HEPES buffer pH 7.2. Finally, the cells were diluted to an optical density of 0.3 at 600 nm wavelength. To measure the permeabilization of the outer membrane, nitrocefin (Merck, Darmstadt, Germany) was diluted in HEPES buffer to a concentration of 60 μg/ml. The antimicrobial peptides were diluted in HEPES buffer to an end concentration of 12 μM, 24 μM, 48 μM and 96 μM end concentration. In the next step, 50 μl of nitrocefin were admixed with 50 μl of antimicrobial peptide and 50 μl of bacteria suspension such that an end concentration of 20 μg/ml of nitrocefin, 4 μM to 32 μM of antimicrobial peptide and bacteria with an optical density of 0.1 to 600 nm were present. The samples were mixed and the absorption at 500 nm wavelength was measured directly over a period of at least 90 min at 37° C. with regular shaking in a FLUOstar omega Microplate Reader (BMG Labtech, Ortenberg, Germany). The investigation of the permeabilization of the inner membrane was carried out in the same way except that instead of the nitrocefin accordingly 0-nitrophenyl-beta-D-galactoside (ONPG, Sigma-Aldrich) in an end concentration of 100 μg/ml was used and the absorption change was determined at a wavelength of 420 nm. The control used was samples without antimicrobial peptide, the positive control used for the membrane permeabilization was polymyxin B (Sigma-Aldrich) in an end concentration of 5 μM. For the data evaluation, firstly the measurement values of the corresponding negative controls were deducted from the measurement values of the samples, and the difference was then divided by the corresponding measurement values of the permeabilization control. Then, a graphical evaluation was carried out, the calculated values being plotted against the peptide concentration and being fitted with the help of the Origin Pro 8.1 G Software (OriginLab) according to a sigmoidal model. As representative examples, FIGS. 4 and 5 show the graphical evaluation for the kinetic investigation of the permeabilization of the outer E. coli bacteria membrane for the peptides N4 (FIG. 4) and O1 (FIG. 5).
As comparison parameter between the peptides, the times were ascertained from this at which 50% of the final signal level was reached. For this purpose, the equation with the percentage membrane permeabilization y, the time x in minutes, the lower plateau A1, the upper plateau A2, the point of inflection Log X0 and the Hill incline p
[formula] was used. The calculation of the parameters A1, A2, Log X0 and p was performed by the program by reference to the compensating curve. Further resolution of equation 5.1 for the case y=50 then produced for x the desired time at which the half-maximum signal level was reached.

The subject of data set [1] is human histiocytic lymphoma cell line U937. Briefly: Cytotoxicity, direct membrane damage (CytoTox 96), LD50. The data set is classed as cell-based. As to conditions: U937, two hours at 37° C., 0.25-64 μM. An outline of the steps:
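Membrane damage in peptide-treated U937 cells measured as LDH release in culture supernatant (30 min substrate, room temperature, dark; absorbance 490 nm). Negative-control signal subtracted and normalized to permeabilization control. LD50 (μM) from sigmoidal fit of relative cytotoxicity (%) versus peptide concentration at 50%.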

No end group written: not given here.

For the compound `CC[C@H](C)[C@H](NC(=O)CN)C(=O)NCC(=O)N[C@@H](C)C(=O)N[C@H](C(=O)N[C@@H](CC(C)C)C(=O)N[C@@H](CCCCN)C(=O)N[C@H](C(=O)N[C@@H](CC(C)C)C(=O)N[C@H](C(=O)N[C@H](C(=O)NCC(=O)N[C@@H](CC(C)C)C(=O)N1CCC[C@H]1C(=O)N[C@@H](C)C(=O)N[C@@H](CC(C)C)C(=O)N[C@H](C(=O)N[C@@H](CO)C(=O)N[C@@H](Cc1c[nH]c2ccccc12)C(=O)N[C@H](C(=O)N[C@@H](CCCCN)C(=O)N[C@@H](CCCNC(=N)N)C(=O)N[C@@H](CCCCN)C(=O)N[C@@H](CCCNC(=N)N)C(=O)N[C@@H](CCC(N)=O)C(=O)N[C@@H](CCC(N)=O)C(N)=O)[C@@H](C)CC)[C@@H](C)CC)[C@@H](C)O)[C@@H](C)O)C(C)C)C(C)C` [Melittin], the “Inner membrane, time to 50% of final signal” value in the data set with E. coli ML-35p (4 μM peptide) is given as 18 min; in the data set with E. coli ML-35p (8 μM peptide) it was 12 min; in the data set on E. coli ML-35p (16 μM peptide), 9 min; in the data set with E. coli ML-35p (32 μM peptide), 6 min. For the same compound, the “Toxicity LD50” value in data set [1] turned out to be 1.4 µM.
In the same order, the values of ILPWKWPWWPWRR [Indolicidin] are >90 min, >90 min, >90 min, >90 min and >64 µM.
With KILILIKRK-OH [N4], the “Inner membrane, time to 50% of final signal” value with E. coli ML-35p (4 μM peptide), in the data set with E. coli ML-35p (8 μM peptide), in the data set with E. coli ML-35p (16 μM peptide) and in the data set on E. coli ML-35p (32 μM peptide) was >90 min each time.
On to KRKRKILILIKRK-OH [N1], for which the “Inner membrane, time to 50% of final signal” value was >90 min with E. coli ML-35p (4 μM peptide), >90 min in the data set on E. coli ML-35p (8 μM peptide), 38 min in the data set on E. coli ML-35p (16 μM peptide) and 32 min in the data set on E. coli ML-35p (32 μM peptide).
In the case of “MPRRRRSSSRPVRRRRRPRVSRRRRRRGGRRR (Protamine) [protamine from salmon, grade IV, histone-free (Sigma-Aldrich)]”, the “Inner membrane, time to 50% of final signal” value in the data set on E. coli ML-35p (4 μM peptide), with E. coli ML-35p (8 μM peptide), in the data set on E. coli ML-35p (16 μM peptide) and with E. coli ML-35p (32 μM peptide) was >90 min throughout. Besides, the “Toxicity LD50” value in data set [1] was >64 µM.
